In PMC8073907, “Peptide targeting of lysophosphatidylinositol-sensing GPR55 for osteoclastogenesis tuning” (Cell Communication and Signaling : CCS, 2021):

What was measured:
endogenous GPR55 (HeLa) = assay: LPI-induced ERK/p38 phosphorylation in shCTRL-HeLa clones (Western blot); assay type: cell-based, human; conditions: 10 µM soybean LPI
Protocol: For stable interference of GPR55, HeLa cells were plated at 1.5 × 10^5 cells/well in six-well plates in growth medium without antibiotics, and 24 h later, the cells were transfected with 1.7 µg/well OmicsLink short hairpin (sh)RNA expression clone CSHCTR001-CU6 (shCTRL) or clone HSH022476-3-CU6 (shGPR55) from GeneCopoeia (Rockville, MD, USA), using Lipofectamine 2000, according the manufacturer instructions. Forty-eight hours after transfection, HeLa clones stably expressing shRNAs were selected in growth medium containing 0.3 µg/mL puromycin. The efficiency of interference was monitored by real-time PCR using the primers listed in the Additional file 1: Table S1. HPRT1 was followed as a housekeeping gene.
Twenty-four hours after transfection (HEK293T, HeLa cells or clones) or 72 h after interference (RAW264.7 cells), the cells were washed twice with HBSS^++, serum deprived (HEK293T cells for 4 h in DMEM; HeLa cells and clones for 2 h in MEM plus 2 mM glutamine and 25 mM HEPES; RAW264.7 cells for 2 h in DMEM), washed once again with HBSS^++, incubated in stimulation buffer (HBSS^++ with 10 mM HEPES, 0.4% faf-BSA for HEK293T cells; HBSS^++ with 25 mM HEPES and 0.01% faf-BSA for HeLa cells, clones, and RAW264.7 cells) in the absence or presence of stimuli, at 37 °C for the indicated times. Incubations were terminated by washing the cells twice with cold HBSS^++, and the analyses were performed as reported below.
Cell lysates were obtained by scraping the cells into phospho-lysis buffer: 50 mM Tris–HCl, pH 7.5, 100 mM NaCl, 5 mM EDTA, 1% Triton X-100, 50 mM NaF, 40 mM β-glycerophosphate, 200 µM sodium orthovanadate, plus protease and phosphatase inhibitors (Roche). Following gentle homogenisation by 20 passages through a 26-gauge needle, the lysates were centrifuged at 10,000×g for 5 min at 4 °C, and the supernatants were collected.
Protein lysates were subjected to SDS-PAGE, and after electrophoresis, the proteins were transferred to a nitrocellulose membrane (PerkinElmer Life Science, Boston, MA, USA). For immunoblotting, the membranes were blocked with 5% non-fat milk in TBS (10 mM Tris–HCl, pH 7.4, 10 mM NaCl) plus 0.1% Tween-20 (T-TBS) for 30 min at room temperature, and incubated with primary antibodies in T-TBS plus 3% BSA for 2 h at room temperature, or overnight at 4 °C. The membranes were washed twice in T-TBS for 7 min, and then incubated with secondary antibodies conjugated to horseradish peroxidase (1:5,000) (Calbiochem, San Diego, CA, USA) in T-TBS with 5% non-fat milk for 30 min at room temperature. The membranes were then washed twice with T-TBS and once with TBS for 5 min, and the signals were detected by ECL (Amersham Pharmacia, Piscataway, NJ, USA). The rabbit anti-phospho AKT (Ser473), anti-phospho p38 (Thr180/Tyr182), anti-phospho p42/44 (Thr202/Tyr204), anti-p38 (all at dilution 1:1000) were from Cell Signaling Technology (Danvers, MA, USA). The rabbit anti-AKT (B-1), and anti-p42/44 (ERK1; K-23) were from Santa Cruz Biotechnology.

RAW264.7 cells = assay: RANKL-induced transcription of osteoclastogenesis markers in RAW264.7 cells (real-time PCR); assay type: cell-based, murine; conditions: 72 h
Protocol: (§1) Total RNA was extracted using RNeasy isolation kits, cDNAs were obtained using QuantiTect Reverse Transcription kits, and real-time PCRs were performed with QuantiTect SYBR Green PCR kits (all from Qiagen, Hilden, Germany), according to the manufacturer instructions. The primers used for the real-time PCRs and their annealing temperatures are listed in the Additional file 1: Table S1. Human hypoxanthine phosphoribosyltransferase 1 (HPRT1) or murine β2-microglobulin were followed as housekeeping genes. The real-time PCR programme consisted of an initial 15 min at 95 °C, and then 45 cycles as follows: 94 °C for 15 s, annealing temperature of each primer for 30 s, and 72 °C for 30 s. The real-time PCR machine used was a LightCycler 480 Instrument II (Roche, Indianapolis, IN, USA).
For transient interference of Gpr55, RAW264.7 cells were plated at 6 × 10^5 cells/well in six-well plates in growth medium without antibiotics. Twenty-four hours later, the cells were transfected with 250 pmol/well non-targeting small-interfering (si)RNAs (si-NT; siGENOME siRNA Pool #2; D-001206-14; Dharmacon, Chicago, IL, USA) or Gpr55-specific siRNAs (si-GPR55; siGENOME mouse GPR55 SMART pool; M-043590-01; Dharmacon) using Lipofectamine LTX and Plus Reagent, according to the manufacturer instructions. Twenty-four hours later, the cells were plated for the different assays or for RNA extraction. The efficiency of interference was monitored by real-time PCR after 72 h of interference, using the primers listed in the Additional file 1: Table S1. β2-microglobulin was followed as a housekeeping gene.
(§2) For the osteoclastogenesis in-vitro assay, RAW264.7 cells were plated in differentiation medium (α-MEM with 10% heat-inactivated FBS, 2 mM L-glutamine, 100 U/mL penicillin, and 100 ug/mL streptomycin) at a density of 5 × 10^3 cells/well in 24-well plates on coverslips for morphological analysis, or at 2 × 10^4 cells/well in six-well plates for RNA extraction. Twenty-four hours later and every 48 h, the medium was replaced and the cells were treated with 15–30 ng/mL RANKL with DMSO and/or PBS as carriers, or with GPR55 antagonists/ agonists (0.5 µM ML-191, 30 µM O1918, 0.5 µM CBD, 0.5 μM CID16020046 1 µM soybean LPI, 1 μM ML-184), or with the peptides (150 nM peptide-P1; or the irrelevant peptide, Irr_P). Twenty-four hours after the last addition, the cells were fixed with 4% paraformaldehyde for morphological analyses or harvested for RNA extraction (see above).

[1] = tested on: Gpr55 mRNA in RAW264.7 cells; assay: Modulation of Gpr55 mRNA levels by receptor ligands in RANKL-treated RAW264.7 cells; assay type: cell-based, murine; conditions: 72 h
Protocol: as §1, §2

[2] = 30 µM ML-191, 10 µM CBD or 10 µM O1918
[3] = 10 min, 10 µM CBD or 30 µM ML-191, relative to CBD or ML-191 basal level
[4] = 15–30 ng/mL RANKL, 0.5 µM ML-191, 0.5 µM CBD, 30 µM O1918, four independent experiments

Row | SMILES | inhibition of LPI stimulation of both ERK2 and p38 phosphorylation at 5 min (endogenous GPR55 (HeLa); [2]) | inhibition of LPI-induced stimulation of ERK1/2 (endogenous GPR55 (HeLa); [2]) | ERK2 phosphorylation upon LPI stimulation in presence of antagonist (endogenous GPR55 (HeLa); [3]) | p38 phosphorylation upon LPI stimulation in presence of antagonist (endogenous GPR55 (HeLa); [3]) | effect on RANKL-induced Mmp-9 mRNA (RAW264.7 cells; 15–30 ng/mL RANKL, 0.5 µM CBD, 30 µM O1918) | effect on RANKL-induced Ctr mRNA (RAW264.7 cells; [4]) | reduction of RANKL-induced Cathepsin-k mRNA (RAW264.7 cells; [4]) | reduction of RANKL-induced Nfatc1 mRNA (RAW264.7 cells; [4]) | reduction of RANKL-induced Trap mRNA (RAW264.7 cells; [4]) | Gpr55 mRNA levels (fold non-differentiated) ([1]; 30 ng/mL RANKL, alone or + 1 μM soybean LPI, 0.5 μM ML-191, 0.5 μM CBD or 30 μM O1918, means ± SEM of at least three independent experiments) | further enhancement of RANKL-stimulated Gpr55 mRNA levels ([1]; 0.5 μM ML-191, 0.5 μM CBD, 1 μM soybean LPI, versus RANKL alone) | RANKL-induced transcription of Ctr, si-NT versus si-GPR55 cells (RAW264.7 cells; RANKL 15 ng/mL, 1 µM soybean LPI or 1 µM ML-184)
1 | C=C(C)[C@@H]1CCC(C)=C[C@H]1c1c(O)cc(CCCCC)cc1O [CBD, Cannabidiol] | inhibited LPI stimulation of both ERK2 and p38 phosphorylation at 5 min | strongly inhibited | 3.3 -fold the antagonist basal lev | 1.5 -fold the antagonist basal lev | not affected | not affected | 44% | 40% | 50% | 27.7 ± 0.5 fold non-differentiated | 0.7 -fold | –
2 | Cc1cccc(N2CCN(C(=O)c3cc(S(=O)(=O)N(C)C)ccc3N3CCCC3)CC2)c1C [ML-184] | – | – | – | – | – | – | – | – | – | – | – | similarly increased RANKL-induced transcription of Ctr only in precursor cells treated with non-targeting siRNAs, and not in those silenced for GPR55
